Experimental data as given in patent publication US12043670B2, “Anti-BCMA antibody-drug conjugates and methods of use” (Eisai R&D Management Co., Ltd., priority 2020, dated 2024).
Like-named read-outs stand apart in the source and are kept apart here.

Columns and labels:
[1] = tested on: splicing of Ad2.1 pre-mRNA in HeLa nuclear extract; assay: In vitro splicing (IVS), qPCR readout, Ad2.1 substrate; type: biochemical
Description: (§1) To evaluate payload activity in a cell-free system, an in vitro splicing assay was performed. The payloads were incubated with nuclear extracts and pre-mRNA substrate minigenes.
(§2) HeLa nuclear extract preparation: HeLa S3 cell pellets were resuspended in hypotonic buffer (10 mM HEPES pH 7.9, 1.5 mM MgCl2, 10 mM KCl, 0.2 mM PMSF, 0.5 mM DTT) and the suspension was brought up to a total of 5 packed cell volume (PCV). After centrifugation, the supernatant was discarded, and the cells were brought up to 3 PCV with hypotonic buffer and incubated on ice for 10 min. Cells were lysed using a dounce homogenizer and then centrifuged. The supernatant was discarded, and the pellet was resuspended with ½ packed nuclear volume (PNV) of low salt buffer (20 mM HEPES pH 7.9, 1.5 mM MgCl2, 20 mM KCl, 0.2 mM EDTA, 25% glycerol, 0.2 mM PMSF, 0.5 mM DTT), followed by ½ PNV of high salt buffer (same as low salt buffer except 1.4 M KCl). The nuclei were gently mixed for 30 min before centrifuging. The supernatant (nuclear extract) was then dialyzed into storage buffer (20 mM HEPES pH 7.9, 100 mM KCl, 0.2 mM EDTA, 20% glycerol, 0.2 mM PMSF, 0.5 mM DTT). Protein concentration was determined using NanoDrop 8000 UV-Vis spectrophotometer (ThermoFisher Scientific). […]

KMS-11 cells = assay: 6-day CellTiter-Glo cell viability, KMS-11; type: cell-based, human
Caco-2 permeability = type: in vitro ADME; settings: human
Description: Caco-2 cells were cultured for 21 days in transwell 24-well plates at 37° C., 95% humidity, 5% CO2. Integrity of cell monolayer was confirmed by TEER (transepithelial electrical resistance) and Lucifer yellow. Payloads were spiked in duplicate at 10 μM, separately, on both sides of the cell monolayer. Permeability rates from the apical to basolateral (A-B) direction and the basolateral to apical (B-A) direction were determined by sampling aliquots from both chambers immediately after treatment (t=0) and following incubation for 2 hours. Samples were protein precipitated with organic solvent containing internal standard and analyzed by LC-MS/MS (SCIEX; API 5500). The area ratio responses of payload/internal standard over time in both directions were used to generate permeability (cm/sec) values. Efflux ratio was calculated by dividing B-A/A-B. Control compounds for low and high permeability and efflux behaved as expected.

U266B1 cells = assay: 6-day CellTiter-Glo cell viability, U266B1; type: cell-based, human
NCI-H929 cells = assay: CellTiter-Glo cell viability, NCI-H929 (normal serum); type: cell-based, human; settings: for GI50: Homo sapiens
LP-1 cells = assay: 6-day CellTiter-Glo cell viability, LP-1; type: cell-based, human
OPM2 cells = assay: CellTiter-Glo cell viability, OPM2 (normal serum); type: cell-based, human; settings: for GI50: Homo sapiens
[2] = tested on: splicing of Ad2.2 pre-mRNA in HeLa nuclear extract; assay: In vitro splicing (IVS), qPCR readout, Ad2.2 substrate; type: biochemical
Description: as §1, §2

RPMI-8226 cells = assay: 6-day CellTiter-Glo cell viability, RPMI-8226; type: cell-based, human
MM1.S cells = assay: CellTiter-Glo cell viability, MM1.S; type: cell-based, human; settings: for GI50: Homo sapiens

For `CC[C@H](O)[C@@H](C)[C@H]1O[C@@H]1C[C@@](C)(O)/C=C/C=C(\C)[C@H]1OC(=O)C[C@H](O)CC[C@@](C)(O)[C@@H](OC(=O)N2CCNCC2)/C=C/[C@@H]1C` [D1, (2S,3S,6S,7R,10R,E)-7,10-dihydroxy-2-((R,2E,4E)-6-hydroxy-7-((2R,3R)-3-((2R,3S)-3-hydroxypentan-2-yl)oxiran-2-yl)-6-methylhepta-2,4-dien-2-yl)-3,7-dimethyl-12-oxooxacyclododec-4-en-6-yl piperazine-1-carboxylate], the IC50 [1] was 16.5 nM, the GI50 (KMS-11 cells; Homo sapiens, KMS-11, 144 h) was 232 nM and the “AUC (nM * % relative viability)” value (KMS-11 cells; KMS11 cells, 6 days) was 706.5255 nM * % relative viability. For the same compound, the LD50 (KMS-11 cells; KMS11 cells, 6 days, CellTiter-Glo) was 485.9409 nM, the RminAve (KMS-11 cells; KMS11 cells, 6 days, negative = cell death vs T0) was −99.3474% and the efflux ratio at 2 h, 10 μM (Caco-2 permeability; B-A/A-B) was 1.5. It also gave a Papp A→B at 2 h, 10 μM (Caco-2 permeability; apical to basolateral, 10 μM, 2 hours, read-out: Permeability, Mean, Caco-2 A-B Perm) of 0.2 ×10⁻⁶ cm/s, a Papp B→A at 2 h, 10 μM (Caco-2 permeability; basolateral to apical, 10 μM, 2 hours, read-out: Permeability, Mean, Caco-2 B-A Perm) of 0.3 ×10⁻⁶ cm/s and a GI50 (U266B1 cells; Homo sapiens, 144 h) of 238 nM. The “AUC (nM * % relative viability)” value (U266B1 cells; U266B1 cells, 6 days) was 712.6903 nM * % relative viability, the LD50 (U266B1 cells; U266B1 cells, 6 days, CellTiter-Glo) was 504.8119 nM and the RminAve (U266B1 cells; U266B1 cells, 6 days, negative = cell death vs T0) was −94.2191%. For the same compound, the GI50 (NCI-H929 cells; NCI-H929, 96 h, read-out: CTGlo Mean GI50 H929 96 h) was 75.5 nM, the GI50 (NCI-H929 cells; NCI-H929, 144 h) was 119 nM and the “AUC (nM * % relative viability)” value (NCI-H929 cells; NCIH929 cells, 6 days) was 646.6007 nM * % relative viability. For the same compound, the LD50 (NCI-H929 cells; NCIH929 cells, 6 days, CellTiter-Glo) was 246.6292 nM, the RminAve (NCI-H929 cells; NCIH929 cells, 6 days, negative = cell death vs T0) was −99.8009% and the “CTGlo Mean LD50 H929 96 h” value (NCI-H929 cells; payload alone, H929, 96 h) was 201 nM. The GI50 (LP-1 cells; Homo sapiens, LP-1, 144 h) was 112 nM, the “AUC (nM * % relative viability)” value (LP-1 cells; LP1 cells, 6 days) was 643.9226 nM * % relative viability and the LD50 (LP-1 cells; LP1 cells, 6 days, CellTiter-Glo) was 234.5168 nM. It also gave a RminAve (LP-1 cells; LP1 cells, 6 days, negative = cell death vs T0) of −99.7195%, a GI50 (OPM2 cells; OPM-2, 96 h, read-out: CTGlo Mean GI50 OPM2 96 h) of 287 nM and a GI50 (OPM2 cells; OPM-2, 144 h) of 117 nM. The “AUC (nM * % relative viability)” value (OPM2 cells; OPM2 cells, 6 days) was 649.8734 nM * % relative viability, the LD50 (OPM2 cells; OPM2 cells, 6 days, CellTiter-Glo) was 256.8053 nM and the RminAve (OPM2 cells; OPM2 cells, 6 days, negative = cell death vs T0) was −99.7805%. For the same compound, the “CTGlo Mean LD50 OPM2 96 h” value (OPM2 cells; payload alone, OPM2, 96 h) was 67.1 nM, the IC50 [2] was 25 nM and the GI50 (RPMI-8226 cells; Homo sapiens, RPMI-8226, 144 h) was 122 nM. For the same compound, the “AUC (nM * % relative viability)” value (RPMI-8226 cells; RPMI8226 cells, 6 days) was 648.8833 nM * % relative viability, the LD50 (RPMI-8226 cells; RPMI8226 cells, 6 days, CellTiter-Glo) was 253.1965 nM and the RminAve (RPMI-8226 cells; RPMI8226 cells, 6 days, negative = cell death vs T0) was −99.6002%. For the same compound, the GI50 (MM1.S cells; MM1.S, 96 h, read-out: CTGlo Mean GI50 MM1.S 96 h) was 37.1 nM, the GI50 (MM1.S cells; MM1.S, 144 h) was 88.4 nM and the “AUC (nM * % relative viability)” value (MM1.S cells; MM1S cells, 6 days) was 644.3501 nM * % relative viability. The LD50 (MM1.S cells; MM1S cells, 6 days, CellTiter-Glo) was 302.924 nM, the RminAve (MM1.S cells; MM1S cells, 6 days, negative = cell death vs T0) was −99.8996% and the “CTGlo Mean LD50 MM1.S 96 h” value (MM1.S cells; payload alone, MM1.S, 96 h) was 98.2 nM.
